The text below walks through data of patent US20140242609A1, “Diagnosis and treatment of kidney stones, methods and compositions therefor” (Washington University, priority 2013, published 2014).

The nature of series [1]: 24 hr urinalysis in metabolic cages, plasma and urine electrolytes. Format: in vivo, mouse. Here is the method:
Age (9-10 weeks old) and sex (male) matched wild-type and CLDN14 KO mice were housed individually in metabolic cages (Harvard Apparatus) with free access to water and food for 24 hr. Urine was collected under mineral oil. The plasma and urine Ca^++ and Mg^2+ levels were determined with atomic flame absorption spectrophotometer (PerkinElmer). The plasma (P) and urine (U) electrolyte levels were determined with the Roche Cobas clinical analyzer (Roche Diagnostics). […] The fractional excretion of electrolytes was calculated using the following equation: FEion=V×Uion/(GFR×Pion), where GFR was calculated according to the clearance rate of creatinine (GFR=V×Ucreatinine/Pcreatinine).
(§1) Mice were housed individually in metabolic cages (Harvard Apparatus) with free access to water and food for 24 hr. Urine was collected under mineral oil. The plasma and urine Ca^++ and Mg^++ levels were determined with atomic flame absorption spectrophotometer (PerkinElmer). The creatinine levels were measured with an enzymatic method that was independent of plasma chromogens.

Series [2] can be described thus: urinary Ca++ and Mg++ levels (ratios to creatinine) in spot urine collections. Conditions: 5 mg/kg BW−1. The format is in vivo, mouse. Here is the method: as §1, with “chromogens. (Gong Y, et al., 2013) The fractional excretion of electrolytes was calculated using the following equation FEion=V×Uion/(GFR×Pion), where GFR was calculated according to the clearance rate of creatinine (GFR=V×Ucreatinine/Pcreatinine).” for “chromogens.”
In these experiments, the inventors gave wild-type C57BL/6 mice SAHA treatments at 5 mg/kg BW^−1 and traced urinary Ca^++ and Mg^++ levels (as ratios to creatinine) from 4 hr to 12 hr in spot urine collections. Consistent with the downregulation of CLDN14 gene expression at 4 hrs, the urinary excretion of Ca^++ and Mg^++ was reduced by 47% and 40% respectively (p<0.01, n=5 versus vehicle, FIG. 19A-B).

The subject of a further series is claudin-14 promoter. Briefly: lacZ reporter of endogenous claudin-14 promoter activity in claudin-14+/lacZ mice. The format is in vivo, mouse. The method, then:
The inventors also sought for alternative mechanisms for claudin-14 gene regulation. Because the claudin-14 KO mouse was generated with a lacZ reporter gene replacing the last exon of claudin-14 gene (including the coding region and 3″-UTR) (Ben-Yosef et al., 2003), the expression of lacZ gene would provide a faithful measurement for endogenous claudin-14 promoter activity regardless of any microRNA based regulation. The claudin-14^+/lacZ mice were treated with cinacalcet or NPS2143 as described for WT mice.
The inventors explored alternative mechanisms for claudin-14 gene regulation. Because the claudin-14 KO mouse was generated with a lacZ reporter gene replacing the last exon of claudin-14 gene (including the coding region and 3′-UTR; Ben-Yosef, T., et al., 2003) the expression of lacZ gene would provide a faithful measurement for endogenous claudin-14 promoter activity regardless of any microRNA based regulation. The claudin-14^+/lacZ mice were treated with cinacalcet or NPS2143 as described for WT mice.

Series [3] concerns CLDN16, CLDN19, TRPV5, TRPM6, NKCC2, ROMK, TSC, Klotho and VDR. The series is described as follows: gene expression of renal ion transporters in SAHA treated mouse kidneys (real-time PCR). The format is in vivo. Conditions: SAHA versus vehicle. An excerpt:
FIG. 25 illustrates gene expression analyses of renal ion transporters in SAHA versus vehicle treated mouse kidneys by real-time PCR. Values are shown as fold ratios relative to the vehicle level (as mean±SEM; n=5).
Total RNA including microRNA was extracted using Trizol (Invitrogen). Cellular mRNA was reverse transcribed using the Superscript-III kit (Invitrogen), followed by real-time PCR amplification using SYBR Green PCR Master Mix (Bio-Rad) and Eppendorf Realplex2S system. The design of claudin-14 primers was described before by Gong et al., 2012. The design of pri-miRNA primers and ChIP primers was according to Gong et al., 2013. Results were expressed as 2^−ΔCt values with ΔCT=Ctgene−Ctβ-actin.

In a further series the test system is pri-miR-9-3. Briefly: pri-miR-9-3 transcript levels in TALH of treated mouse kidneys (real-time PCR). Conditions: 30 mg/kg BW−1; 2 hrs or 8 hrs. The format is in vivo. From the text:
Total RNA including microRNA was extracted using Trizol (Invitrogen). Cellular mRNA was reverse transcribed using the Superscript-III kit (Invitrogen), followed by real-time PCR amplification using SYBR Green PCR Master Mix (Bio-Rad) and Eppendorf Realplex2S system. The design of claudin-14 primers was described above. The design of pri-miRNA primers was according to Ma et al., (2010). Results were expressed as 2^−ΔCt values with ΔCT=Ctgene−Ctβ-actin.
To measure the transcriptional level for microRNA gene in vivo in the kidney, the inventors designed primers (see Methods; Table 2) to amplify the pri-miRNA molecule, the original transcript for microRNA gene that had not yet been subjected to any nuclear or cellular processing. Because both miR-9 and miR-374 had broader localization profiles along the nephron, the inventors isolated the TALH tubular cells for pri-miRNA analyses from the mouse kidney described elsewhere in this study. WT mice (strain: C57BL/6) were treated with NPS2143 or cinacalcet as described for claudin-14 analyses and assayed for pri-miRNA levels in isolated TALH cells at 2 hrs and 8 hrs respectively. […] NPS2143 and cinacalcet also profoundly regulated pri-miR-374. […]
Total RNA including microRNA was extracted using Trizol (Invitrogen). […] Results were expressed as 2^−ΔCt values with ΔCT=Ctgene−Ctβ-actin.
(In qPCR the cycle at which signal appears reflects the starting amount.)

Setting [4] is: WT pre-treated with furosemide 40 mg/kg BW−1 per day, Veh + Furo = furosemide alone.

Entries after “also recorded” stand apart in the source; their conditions may differ.

On to `O=C(CCCCCCC(=O)Nc1ccccc1)NO` [SAHA, Suberanilohydroxamic acid], for which, in series [1] (CLDN14 KO, same SAHA regimen), the ECa was 1.20 ± 0.24 ug/24 hr · g, the EMg stood at 6.50 ± 0.55 ug/24 hr · g, the FECa turned out to be 0.45 ± 0.07% and the FEMg came to 9.90 ± 0.83%. For the same molecule, in series [1] (CLDN14 KO, same SAHA regimen), the PCa was found to be 11.13 ± 0.34 mg/dL and the PMg came out at 2.76 ± 0.05 mg/dL. In series [1] (setting [4]), the ECa was determined as 3.37 ± 0.75 ug/24 hr · g, the EMg is 8.34 ± 2.15 ug/24 hr · g, the FECa turned out to be 1.97 ± 0.38% and the FEMg is reported as 22.50 ± 6.40%. Also, in series [1] (setting [4]), the PCa is listed as 9.95 ± 0.41 mg/dL and the PMg amounted to 2.20 ± 0.06 mg/dL. For the same molecule, in series [1] (WT, SAHA 10 mg/kg BW−1 per day), the ECa is recorded as 0.72 ± 0.26^□ ug/24 hr · g, the EMg is recorded as 3.16 ± 0.80^□□ ug/24 hr · g, the FECa is 0.27 ± 0.08^□□ % and the FEMg is 6.06 ± 1.71^□□ %. Also, in series [1] (WT, SAHA 10 mg/kg BW−1 per day), the PCa was 11.38 ± 0.44^□ mg/dL and the PMg is 2.71 ± 0.12^□ mg/dL. For the same molecule, the “effect of chronic treatment on calcemia” value in series [1] (chronic SAHA treatment) is “mild hypercalcemia”. Moreover, in series [2] (4 hrs, versus vehicle), the “urinary excretion of Ca++, reduction” value is reported as 47% and the “urinary excretion of Mg++, reduction” value is recorded as 40%. The “effects on urinary Ca++ and Mg++ levels” value in series [2] (after 12 hrs) is listed as “completely lost”. Also, in series [2] (by 8 hrs), the “urinary Ca++ excretion” value is “hypocalciuria was pronounced” and the urinary magnesium excretion result is on record as “recovered to the vehicle level”. Also, the “lacZ mRNA levels” value in the series with claudin-14 promoter (25 mg/kg BW−1, 4 hrs) was “no significant change”. The “expression levels of other major Ca++/Mg++ transporters from the kidney” value in series [3] was “nor did the inventors find any significant change”.
With `C[C@@H](NCCCc1cccc(C(F)(F)F)c1)c1cccc2ccccc12` [cinacalcet], in the series with pri-miR-9-3, the “pri-miR-9-3 level, change” value is “Neither pri-miR-9-2 (FIG. 12B) nor pri-miR-9-3 level (FIG. 12C) was significantly altered; also recorded: Neither pri-miR-9-2 (FIG. 29B) nor pri-miR-9-3 level (FIG. 29C) was significantly altered”. Moreover, in the series on claudin-14 promoter (claudin-14+/lacZ mouse kidneys, single-dose 30 mg/kg BW−1, 2 hrs), the “lacZ mRNA levels” value is listed as “no change”. The β-galactosidase activity result in the series with claudin-14 promoter (isolated TALH cells of claudin-14+/lacZ mice, single-dose 30 mg/kg BW−1, 2 hrs) is “no change”.
For the molecule `CC(C)(Cc1ccc2ccccc2c1)NC[C@@H](O)COc1cccc(Cl)c1C#N` [NPS2143], in the series with pri-miR-9-3, the “pri-miR-9-3 level, change” value is given as “Neither pri-miR-9-2 (FIG. 12B) nor pri-miR-9-3 level (FIG. 12C) was significantly altered; also recorded: Neither pri-miR-9-2 (FIG. 29B) nor pri-miR-9-3 level (FIG. 29C) was significantly altered”.
